For test [1], the target named is T1, human TRPA1 (Homo sapiens, UniProt O75762).
T1 construct: expressed in transfected cells; host or cells: Xenopus laevis oocytes (mRNA injection)
In words: Inhibition of AITC-induced currents through human TRPA1 in X. laevis oocytes (electrophysiology). The class given is cell-based. The conditions noted are these: for residual current (inhibited currents to): human TRPA1, toxin 10 μM, 100 μM AITC, normalized to response without ProTx-I (100%), n = 3–6 oocytes. How it is done:
(§1) Currents through human and rat TRPA1 [21] were recorded in X. laevis oocytes expressing these channels. Oocyte isolation, mRNA injection, and experimental recordings have been described previously. All solutions were prepared on the day of the experiment using calcium-free ND-96 containing 96 mM NaCl, 2 mM KCl, 1 mM MgCl2 , and 10 mM HEPES at pH 7.4. Currents were stimulated by the application 100 μM AITC (Sigma-Aldrich). The solution was manually added to the perfusion chamber, and the currents were recorded using voltage ramps as reported in [22]. For each oocyte, we sequentially recorded three responses to AITC application, as well as the subsequent leakage current in the presence of a specific TRPA1 inhibitor: HC030031 (Sigma-Aldrich). The first response amplitude was used to normalize the data obtained on different oocytes. To induce the second response, AITC was applied together with ProTx-I or HC030031. The amplitude of this response was measured, normalized, averaged across different oocytes, and used to plot dose-response curves. Dose-response curves were approximated by the Hill equation: […]
where nH is the Hill coefficient.
Statistical data processing was performed using GraphPad Prism 9.0. To compare current amplitudes at specific toxin concentrations, either a two-tailed Student’s t-test or one-way ANOVA and Dunnett’s multiple comparison test was used. Dose-response curve parameters were compared using the F-test.
Fig. 4 Effect of ProTx-I variants on AITC-induced outward currents through TRPA1 in X. laevis oocytes. (A) Average normalized current traces for the human TRPA1 channel in the absence and presence of the selective antagonist HC030031 or ProTx-I. Data are presented as mean ± SEM (lines and shaded areas, respectively, n = 3–6 oocytes). Compound application periods are shown by solid black bars above the traces. […] (C) Dose-response curves for recombinant rProTx-I at human (hTRPA1) and rat (rTRPA1) ion channels. […] Data in B and C (mean ± SEM, n = 3–6 oocytes) are normalized to the response recorded without ProTx-I (100%)

The target in the next test is T2, rat TRPA1 (Rattus norvegicus, UniProt Q6RI86).
T2 construct: expressed in transfected cells; host or cells: Xenopus laevis oocytes (mRNA injection)
T2 sequence (Q6RI86 whole entry): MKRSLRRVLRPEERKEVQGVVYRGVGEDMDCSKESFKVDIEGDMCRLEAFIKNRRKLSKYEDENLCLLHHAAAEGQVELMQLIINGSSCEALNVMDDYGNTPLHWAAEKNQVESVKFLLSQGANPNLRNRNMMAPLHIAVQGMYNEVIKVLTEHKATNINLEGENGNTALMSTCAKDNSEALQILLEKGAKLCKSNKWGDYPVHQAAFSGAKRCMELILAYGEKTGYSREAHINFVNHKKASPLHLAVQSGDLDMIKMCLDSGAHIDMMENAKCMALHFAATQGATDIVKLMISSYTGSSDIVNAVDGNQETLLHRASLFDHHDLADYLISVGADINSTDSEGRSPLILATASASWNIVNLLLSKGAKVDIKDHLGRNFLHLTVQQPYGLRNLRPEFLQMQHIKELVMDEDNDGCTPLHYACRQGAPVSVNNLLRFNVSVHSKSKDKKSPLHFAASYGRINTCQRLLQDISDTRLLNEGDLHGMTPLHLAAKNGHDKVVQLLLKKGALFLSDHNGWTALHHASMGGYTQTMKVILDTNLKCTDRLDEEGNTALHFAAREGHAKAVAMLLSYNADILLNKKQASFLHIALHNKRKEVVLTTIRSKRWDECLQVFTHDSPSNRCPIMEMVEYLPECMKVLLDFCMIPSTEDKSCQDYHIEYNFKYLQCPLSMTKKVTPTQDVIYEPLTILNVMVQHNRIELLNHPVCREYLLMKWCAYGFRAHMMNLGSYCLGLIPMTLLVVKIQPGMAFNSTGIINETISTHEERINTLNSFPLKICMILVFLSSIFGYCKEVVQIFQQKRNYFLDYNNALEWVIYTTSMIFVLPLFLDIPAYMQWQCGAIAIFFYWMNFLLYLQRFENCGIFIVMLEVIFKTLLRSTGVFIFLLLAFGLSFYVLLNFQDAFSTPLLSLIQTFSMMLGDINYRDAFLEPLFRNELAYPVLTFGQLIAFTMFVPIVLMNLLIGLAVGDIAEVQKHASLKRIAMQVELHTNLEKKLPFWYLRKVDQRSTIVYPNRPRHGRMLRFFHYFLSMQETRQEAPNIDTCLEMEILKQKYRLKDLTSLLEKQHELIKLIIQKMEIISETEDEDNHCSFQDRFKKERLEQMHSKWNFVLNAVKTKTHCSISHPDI
In words: Inhibition of AITC-induced currents through rat TRPA1 in X. laevis oocytes (electrophysiology). The class given is cell-based. As for the experimental part: as §1
where nH is the Hill coefficient. […]
Fig. 4 Effect of ProTx-I variants on AITC-induced outward currents through TRPA1 in X. laevis oocytes. […] Data in B and C (mean ± SEM, n = 3–6 oocytes) are normalized to the response recorded without ProTx-I (100%)

Test [2] has as its system voltage-gated sodium (NaV), potassium, and calcium channels. The conditions noted are these: cited from earlier work. From the text:
Due to its action at the NaV1.7, NaV1.8, and TRPA1 channels involved in pain perception and propagation, ProTx-I may be used as a model for the development of next-generation analgesics. ProTx-I consists of 35 amino acid residues, with three disulfide bonds forming an inhibitor cystine knot (ICK) motif, which challenges its heterologous production. An efficient Pro ... || Spider knottins include membrane-active toxins that affect the activation or inactivation of sodium (NaV), potassium, and calcium voltage-gated channels (so-called gating modifier toxins). The ProTx-I toxin (Protoxin-I or β/ω-theraphotoxin-Tp1a, 35 aa) is a membrane-active knottin of the Peruvian green velvet tarantula Thrixopelma pruriens. […] Among the ProTx-I targets, NaV1.7, NaV1.8, and TRPA1 channels are promising therapeutic targets for the treatment of pain and neu ...

Test [3] deals with T1, human TRPA1. The conditions noted are these: cited from earlier work.
From the text: In the present study, we compared the functional activity of Met-ProTx-I and ProTx-I, with the latter being produced by hydrolysis of 6His-Met-ProTx-I, at the human TRPA1 channel expressed in X. laevis oocytes.

“Also recorded” adds a separate entry of the source. Positions of bridges follow the written chain, without caps; N, C: chain ends. Residues, ends and D or L forms follow the SMILES beside them.

T1 sequence (O75762 whole entry): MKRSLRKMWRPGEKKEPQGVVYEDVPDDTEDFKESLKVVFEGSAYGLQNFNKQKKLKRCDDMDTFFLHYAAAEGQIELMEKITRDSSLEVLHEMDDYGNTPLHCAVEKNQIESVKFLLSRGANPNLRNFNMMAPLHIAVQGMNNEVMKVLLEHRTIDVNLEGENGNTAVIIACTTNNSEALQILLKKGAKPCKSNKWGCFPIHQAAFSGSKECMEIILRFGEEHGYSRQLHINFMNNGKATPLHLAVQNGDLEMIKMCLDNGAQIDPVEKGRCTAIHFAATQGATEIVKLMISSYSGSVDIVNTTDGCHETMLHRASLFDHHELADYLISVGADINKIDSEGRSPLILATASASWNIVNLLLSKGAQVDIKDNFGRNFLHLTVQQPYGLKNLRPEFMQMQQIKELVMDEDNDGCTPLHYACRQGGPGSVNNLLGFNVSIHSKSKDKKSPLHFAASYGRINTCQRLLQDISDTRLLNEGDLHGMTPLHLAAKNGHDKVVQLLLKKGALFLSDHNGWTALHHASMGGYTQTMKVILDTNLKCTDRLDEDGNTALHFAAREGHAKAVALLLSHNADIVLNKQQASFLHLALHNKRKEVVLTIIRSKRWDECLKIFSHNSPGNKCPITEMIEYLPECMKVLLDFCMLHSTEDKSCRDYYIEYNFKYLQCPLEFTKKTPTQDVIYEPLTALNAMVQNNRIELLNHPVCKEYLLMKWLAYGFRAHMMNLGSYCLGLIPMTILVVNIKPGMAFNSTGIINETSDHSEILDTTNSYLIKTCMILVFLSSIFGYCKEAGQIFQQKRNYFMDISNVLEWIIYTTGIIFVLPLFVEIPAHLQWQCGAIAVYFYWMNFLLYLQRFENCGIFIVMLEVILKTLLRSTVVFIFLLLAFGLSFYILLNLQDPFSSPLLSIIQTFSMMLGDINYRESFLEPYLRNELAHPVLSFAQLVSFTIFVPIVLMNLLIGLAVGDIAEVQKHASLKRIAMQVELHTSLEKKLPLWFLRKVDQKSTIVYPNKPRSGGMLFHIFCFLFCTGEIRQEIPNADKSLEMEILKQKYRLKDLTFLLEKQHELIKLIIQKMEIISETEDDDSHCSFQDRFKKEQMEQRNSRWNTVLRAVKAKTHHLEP

With `CC(C)c1ccc(NC(=O)Cn2cnc3c2c(=O)n(C)c(=O)n3C)cc1` [HC030031], on human TRPA1 [1], the “inhibition of current through TRPA1 (in words)” value is given as “This effect was similar to that of 50 μM HC0300301”.

Turning to `CSCC[C@H](N)C(=O)N[C@@H](CCC(=O)O)C(=O)N[C@H]1CSSC[C@@H]2NC(=O)[C@@H]3CSSC[C@@H](C(=O)N[C@H](C(=O)N[C@@H](Cc4c[nH]c5ccccc45)C(=O)N[C@@H](CC(=O)O)C(=O)NCC(=O)N[C@H](C(=O)N[C@@H](Cc4ccccc4)C(=O)N[C@@H](CO)C(=O)O)[C@@H](C)O)C(C)C)NC(=O)[C@H](Cc4c[nH]c5ccccc45)NC(=O)CNC(=O)[C@H](Cc4c[nH]cn4)NC(=O)[C@H](CCCNC(=N)N)NC(=O)[C@H](CCCNC(=N)N)NC(=O)[C@H](CO)NC(=O)[C@H](CSSC[C@H](NC(=O)CNC(=O)CNC(=O)[C@H](CC(C)C)NC(=O)[C@H](Cc4c[nH]c5ccccc45)NC(=O)[C@H](Cc4ccc(O)cc4)NC(=O)[C@H](CCCNC(=N)N)NC1=O)C(=O)N[C@@H](CO)C(=O)N[C@@H](C)C(=O)NCC(=O)N[C@@H](CCC(N)=O)C(=O)N[C@@H]([C@@H](C)O)C(=O)N3)NC(=O)[C@H](C(C)C)NC(=O)[C@H](CC(C)C)NC(=O)[C@H](Cc1c[nH]cn1)NC(=O)[C@H](CCCCN)NC2=O` [Met-ProTx-I] (H-MECRYWLGGCSAGQTCCKHLVCSRRHGWCVWDGTFS-OH; disulfide 3-17, 10-22, 16-29), on human TRPA1 [1], the 50% inhibitory concentration (IC50) worked out at 8900 ± 7000 nM and the “residual current (inhibited currents to)” value was ~ 60%.

`CC(C)C[C@@H]1NC(=O)[C@H](Cc2c[nH]c3ccccc23)NC(=O)[C@H](Cc2ccc(O)cc2)NC(=O)[C@H](CCCNC(=N)N)NC(=O)[C@@H](NC(=O)[C@@H](N)CCC(=O)O)CSSC[C@@H]2NC(=O)[C@@H]3CSSC[C@@H](C(=O)N[C@H](C(=O)N[C@@H](Cc4c[nH]c5ccccc45)C(=O)N[C@@H](CC(=O)O)C(=O)NCC(=O)N[C@H](C(=O)N[C@@H](Cc4ccccc4)C(=O)N[C@@H](CO)C(=O)O)[C@@H](C)O)C(C)C)NC(=O)[C@H](Cc4c[nH]c5ccccc45)NC(=O)CNC(=O)[C@H](Cc4c[nH]cn4)NC(=O)[C@H](CCCNC(=N)N)NC(=O)[C@H](CCCNC(=N)N)NC(=O)[C@H](CO)NC(=O)[C@H](CSSC[C@H](NC(=O)CNC(=O)CNC1=O)C(=O)N[C@@H](CO)C(=O)N[C@@H](C)C(=O)NCC(=O)N[C@@H](CCC(N)=O)C(=O)N[C@@H]([C@@H](C)O)C(=O)N3)NC(=O)[C@H](C(C)C)NC(=O)[C@H](CC(C)C)NC(=O)[C@H](Cc1c[nH]cn1)NC(=O)[C@H](CCCCN)NC2=O` [ProTx-I (Smartox)]: at human TRPA1 [1], inhibition was half-maximal at 410 ± 160 nM (IC50) and the “residual current (inhibited currents to)” value is reported as ~ 5%.

Consider `CC(C)C[C@@H]1NC(=O)[C@H](Cc2c[nH]c3ccccc23)NC(=O)[C@H](Cc2ccc(O)cc2)NC(=O)[C@H](CCCNC(=N)N)NC(=O)[C@@H](NC(=O)[C@@H](N)CCC(=O)O)CSSC[C@@H]2NC(=O)[C@@H]3CSSC[C@@H](C(=O)N[C@H](C(=O)N[C@@H](Cc4c[nH]c5ccccc45)C(=O)N[C@@H](CC(=O)O)C(=O)NCC(=O)N[C@H](C(=O)N[C@@H](Cc4ccccc4)C(=O)N[C@@H](CO)C(=O)O)[C@@H](C)O)C(C)C)NC(=O)[C@H](Cc4c[nH]c5ccccc45)NC(=O)CNC(=O)[C@H](Cc4c[nH]cn4)NC(=O)[C@H](CCCNC(=N)N)NC(=O)[C@H](CCCNC(=N)N)NC(=O)[C@H](CO)NC(=O)[C@H](CSSC[C@H](NC(=O)CNC(=O)CNC1=O)C(=O)N[C@@H](CO)C(=O)N[C@@H](C)C(=O)NCC(=O)N[C@@H](CCC(N)=O)C(=O)N[C@@H]([C@@H](C)O)C(=O)N3)NC(=O)[C@H](C(C)C)NC(=O)[C@H](CC(C)C)NC(=O)[C@H](Cc1c[nH]cn1)NC(=O)[C@H](CCCCN)NC2=O` [rProTx-I], for which the IC50 against human TRPA1 [1] amounted to 840 ± 190 nM; on rat TRPA1 (rTRPA1 in X. laevis oocytes, outward currents induced by 100 μM AITC, calcium-free ND-96, pH 7.4, voltage ramps, Hill equation fit, n = 3–6 oocytes, rat vs human p = 0.006 (F-test)), 250 ± 70 nM. Besides, the “residual current (inhibited currents to)” value on human TRPA1 [1] is ~ 5%.

For ProTx-I, on rat TRPA1 (rat versus human TRPA1, difference in IC50 p = 0.006 (F-test)), the “species selectivity, rat versus human TRPA1 (in words)” value was “different activities relative to human and rat TRPA1 channels”. Moreover, the “inhibition of voltage-gated channels (in words)” value in test [2] is “inhibits voltage-gated sodium (NaV), potassium, and calcium channels; also recorded: effectively inhibits a number of voltage-gated channels”. The “species selectivity, human versus mouse TRPA1 (in words)” value at human TRPA1 [3] is on record as “higher activity at the human channel”.

Source of the values: PMC12755868, “Recombinant Production, SpeciesSpecific Activity at the TRPA1 Channel, and Significance of the N-Terminal Residue of ProTx-I Toxin from Thrixopelma Pruriens Tarantula Venom” (Acta Naturae, 2025).
